Values joined by “and” are separate entries in the source; they are usually repeats but may differ in a detail not shown here. Equal entries are not always repeated.
What was measured:
metastatic solid tumors = assay: Phase I trial: clinical and radiologic response of metastatic cancer; assay type: in vivo, human
Text: Patients with effusions or bone marrow involvement as the only manifestations of disease, and those who had severe intercurrent illness requiring intensive management or were transfusion dependent, were excluded. […] Other requirements were demonstrable progression of disease in the previous 3 months, after standard treatments such as surgery, chemotherapy, radiotherapy, and/or immunotherapy, or progressive disease after declining conventional treatment modalities.
(§1) Six patients were to be enrolled at each dose level. After 4 patients were enrolled at level I, if one patient experienced dose-limiting toxicity (DLT) (defined as Hct<80% of baseline), 2 more patients were enrolled at level I. If no DLT was observed, patients were enrolled at the next dose level. Treatment was allowed to continue beyond induction of target copper deficiency, if the patients experienced a partial or complete clinical response or achieved clinical stable disease by the following definitions. Complete response is defined as the disappearance of all clinical and laboratory signs and symptoms of active disease. Partial response is defined as a 50% or greater reduction in the size of measurable lesions defined by the sum of the products of the longest perpendicular diameters of the lesions, with no new lesions or lesions increasing in size. Minor response is defined as a 25-49% reduction in the sum of the products of the longest perpendicular diameters of one or more measurable lesions, no increase in size of any lesions and no new lesions; stable disease is any change in tumor measurements not represented by the criteria for response or progressive disease, which is defined as an increase of 25% or more in the sum of the products of the longest perpendicular diameters of any measurable indicator lesions, compared to the smallest previous measurement or appearance of a new lesion. Because copper deficiency is not a cytotoxic treatment modality, the patients who provide information about the efficacy of TM for long-term therapy, in this population of patients with advanced cancer, are primarily those who remained within the target Cp window of (20±10)% of baseline for over 90 days, without disease progression
Extent of disease was evaluated at entry, at the point of achievement of copper deficiency, defined as Cp at or below 20% of baseline, and every 10-12 weeks thereafter. Computer-assisted tomography or magnetic resonance imaging were used as appropriate for conventional measurement of disease at all known sites and for evaluation of any potential new sites of disease. Angiogenesis-sensitive ultrasound with 3-dimensional Doppler analyses was employed in select cases, as adjunct to conventional imaging, to evaluate the blood flow to the tumors at different time points.
Blood flow was measured by ultrasound in select patients with accessible lesions, at the time they became copper deficient, and at variable intervals of 8-16 weeks thereafter. 3D scanning was performed on a GE Logiq 700 ultrasound system, with the 739L, 7.5 MHz linear array scanhead. The scanning and vascularity quantification techniques were as previously described (Carson et al., 1998; LeCarpentier et al., 1999).

[1] = test system: SUM149 breast cancer cells; assay: Nude mice with orthotopically injected SUM149 cells; assay type: in vivo
Text: In this study, the ability of tetrathiomolybdate (TM) to abrogate or retard the growth of tumors in the mammary pads of nude mice after orthotropic injection of human breast cancer cells was studied. The highly angiogenic inflammatory breast cancer cell line called SUM149 was selected for this study. Given its high propensity to form palpable tumors within 2 weeks of injection into the mammary of 80-100% of the nude mice injected, this cell line posed a stringent test of the ability of TM to impair tumor progression.
Three groups of 5 nude mice each were set up in separate cages. Groups 2 and 3 received TM in the drinking water to average an intake of 1.2 mg/day/mouse, starting at day −7. Groups 1, 2, and 3 were injected on day 0 with 10^6 SUM149 breast cancer cells in the second thoracic mammary fat pad. On day 34, as no palpable tumors were noticeable in any of the mice in the treatment groups, TM was skipped on groups 2 and 3, and then TM was restarted on group 2 at a dose of 0.6 mg/day/mouse, while TM was resumed at full dose (1.2 mg/mouse/day) in group 3.
The developing tumors were measured approximately twice weekly, and the average of the product of the bi-dimensional perpendicular diameters for each group versus time is plotted in FIG. 3. The tumors in the control group grew relatively rapidly and all animals developed tumors. […] This dose decreases copper to approximately 10-20% of baseline levels. It is this degree of copper deficiency, well tolerated in both mice and humans, which appears to be required to inhibit tumor angiogenesis.

Phase I trial: toxicity = assay type: in vivo, human
Text: as §1
Complete blood counts, liver and renal function tests, urinalyses, and Cp level (by the oxidase method) were performed weekly for 16 weeks, then bi-weekly. Physical examinations and evaluations of toxicity were carried out every 2 weeks for 8 weeks, then every 4 weeks for the duration of therapy. Toxicity was evaluated using the National Cancer Institute Common Toxicity Criteria (Table 3). […] Nevertheless, therapy will be discontinued and the patient removed from the study if grade 3 or higher toxicities of any type are observed, whatever the probable etiology. For grade 2 toxicities, an attempt will be made to establish their etiology.

[2] = Target Cp >90 days, + = on therapy

Substance: tetrathiomolybdate [TM]
- duration of stable disease, patient with previously untreated metastatic breast cancer (metastatic solid tumors; TM alone): over 6 months
- No. of Patients: Disease progression (metastatic solid tumors; Target Cp <90 days): 7
- No. of Patients: Stable disease with partial regression of lung lesions (metastatic solid tumors; Target Cp <90 days): 1
- Duration of Cu Deficiency: Stable disease with partial regression of lung lesions (metastatic solid tumors; Target Cp <90 days, + = on therapy): 49+ days
- No. of Patients: Disease progression at one site, stable elsewhere (metastatic solid tumors; Target Cp >90 days): 1/6
- No. of Patients: Stable disease (metastatic solid tumors; Target Cp >90 days): 4/6
- No. of Patients: Stable disease with partial regression of lung lesions (metastatic solid tumors; Target Cp >90 days): 1/6
- Duration of Cu Deficiency: Stable disease, individual patients (metastatic solid tumors; Target Cp >90 days, * = patient discontinued therapy, + = on therapy): 159 days and 329 days and 351 days and 413 days
- Duration of Cu Deficiency (Average): Stable disease (metastatic solid tumors; [2]): 313 days
- Duration of Cu Deficiency: Disease progression at one site, stable elsewhere (metastatic solid tumors; [2]): 120+ days
- Duration of Cu Deficiency: Stable disease with partial regression of lung lesions (metastatic solid tumors; [2]): 120+ days
- disease status, patient with metastatic chondrosarcoma (metastatic solid tumors; long-term therapy): stable disease after 12 months of copper deficiency
- lung lesions in two patients with stable disease (metastatic solid tumors; observation periods at target Cp of 120 and 49 days): complete disappearance of some lung lesions and decrease in size of other lung lesions
- patients with stable disease (metastatic solid tumors; patients copper deficient at the target range for at least 90 days): 5 out of 6 and 5/6
- disease progression after discontinuation of TM therapy (metastatic solid tumors; patients removed from protocol): much more rapid rates of progression of disease
- decrease in blood flow to tumor mass by 3D-ultrasound (metastatic solid tumors; rib metastasis from renal cell carcinoma, approximately 8 weeks after reaching target copper deficiency): 4.4 fold
- palpable tumors ([1]; 1.2 mg/day/mouse in drinking water from day −7): no tumors were palpable until TM was skipped on day 34
- tumor growth after TM skipped on day 34 ([1]; TM restarted at ½ dose (0.6 mg/day/mouse)): the tumors grew more rapidly
- tumor growth after TM skipped on day 34 ([1]; TM resumed at full dose 1.2 mg/day/mouse): only very small tumors have grown
- copper level ([1]; full dose 1.2 mg/day/mouse): 10-20 % of baseline levels
- decrease of copper levels ([1]; ½ dose of TM (0.6 mg/day/mouse)): 50%
- toxicities (Phase I trial: toxicity; Cp levels at or above 20% of baseline): no cardiac, pulmonary, GI, renal, hepatic, hematologic, infectious, skin, mucosal, or neurologic toxicities observed
- patients with mild (greater than 80% of baseline Hct) reversible anemia (Phase I trial: toxicity; Cp levels between 10-20% of baseline): 4 patients
- toxicity (Phase I trial: toxicity; Cp lowered to 10-20% of baseline for up to 17 months of treatment): remarkably non-toxic
- toxicity (Phase I trial: toxicity; Cp reduced to 15-20% of baseline): non-toxic
- only drug-related toxicity observed (Phase I trial: toxicity; in vivo): mild anemia in one patient
- toxicities on long-term maintenance (Phase I trial: toxicity; mild clinical copper deficiency over 8-15 months): No additional toxicities of any type were observed
- time for hematocrit to recover after stopping the drug (Phase I trial: toxicity; one patient, without transfusion): 5 to 7 days
- other adverse effect (Phase I trial: toxicity; several patients, within 30 minutes of TM ingestion): transient, occasional sulphur-smelling burping

Reference: patent US7438931B2, “Methods and compositions for the treatment of angiogenic diseases” (The Regents of The University of Michigan, priority 1998, dated 2008)
